What was measured:
[1] = molecular target: Sodium-dependent dopamine transporter (Rattus norvegicus, UniProt P23977); test: Displacement of [3H]GBR-12935 from DAT in rat […]; assay type: tissue-based
[2] = Selectivity for SERT over DAT; assay type: protein assay; conditions: Rattus norvegicus
[3] = molecular target: Norepinephrine transporter (Rattus norvegicus, UniProt Q9WTR4); test: Displacement of [3H]nisoxetine from NET in rat […]; assay type: tissue-based
[4] = molecular target: Sodium-dependent serotonin transporter (Rattus norvegicus, UniProt P31652); test: Displacement of [3H]paroxetine from SERT in rat frontoparietal cerebral cortex; assay type: tissue-based
[5] = molecular target: Monoamine transporters; Norepinephrine & serotonin (Rattus norvegicus) (UniProt P31652+Q9WTR4); test: Selectivity for SERT over NET; assay type: protein assay

Chain of Norepinephrine transporter (Q9WTR4 whole entry): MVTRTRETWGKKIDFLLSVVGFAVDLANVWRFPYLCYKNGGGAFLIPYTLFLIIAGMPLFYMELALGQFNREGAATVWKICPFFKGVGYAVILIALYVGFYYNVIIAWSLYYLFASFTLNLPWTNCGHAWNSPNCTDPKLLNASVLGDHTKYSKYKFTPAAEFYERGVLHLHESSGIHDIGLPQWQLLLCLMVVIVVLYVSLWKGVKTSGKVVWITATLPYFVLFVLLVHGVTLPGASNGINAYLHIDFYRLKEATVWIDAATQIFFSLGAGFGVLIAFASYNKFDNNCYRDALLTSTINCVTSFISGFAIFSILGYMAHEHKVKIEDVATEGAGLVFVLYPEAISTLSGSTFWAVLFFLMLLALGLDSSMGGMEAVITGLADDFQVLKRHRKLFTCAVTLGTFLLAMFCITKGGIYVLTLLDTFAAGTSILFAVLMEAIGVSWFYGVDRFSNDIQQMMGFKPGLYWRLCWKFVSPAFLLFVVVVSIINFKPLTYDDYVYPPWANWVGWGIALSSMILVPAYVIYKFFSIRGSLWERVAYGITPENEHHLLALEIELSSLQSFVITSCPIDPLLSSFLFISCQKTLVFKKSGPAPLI
Chain of Sodium-dependent dopamine transporter (P23977 whole entry): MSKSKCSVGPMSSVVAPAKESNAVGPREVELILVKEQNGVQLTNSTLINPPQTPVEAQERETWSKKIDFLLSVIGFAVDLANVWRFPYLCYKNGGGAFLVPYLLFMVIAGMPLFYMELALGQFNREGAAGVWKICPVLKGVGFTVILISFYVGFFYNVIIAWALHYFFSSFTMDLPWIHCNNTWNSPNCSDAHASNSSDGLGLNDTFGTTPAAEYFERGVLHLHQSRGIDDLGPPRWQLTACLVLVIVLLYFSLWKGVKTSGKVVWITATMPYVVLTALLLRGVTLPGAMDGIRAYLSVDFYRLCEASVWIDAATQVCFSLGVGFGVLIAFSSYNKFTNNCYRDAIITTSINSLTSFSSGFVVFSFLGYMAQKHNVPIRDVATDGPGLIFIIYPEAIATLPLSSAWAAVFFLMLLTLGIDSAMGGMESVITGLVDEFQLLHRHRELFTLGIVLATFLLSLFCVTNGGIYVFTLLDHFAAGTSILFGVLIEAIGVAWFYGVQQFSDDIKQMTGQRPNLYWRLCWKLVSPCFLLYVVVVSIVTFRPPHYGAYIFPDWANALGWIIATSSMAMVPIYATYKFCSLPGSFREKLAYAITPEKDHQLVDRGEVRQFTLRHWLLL
Chain of Sodium-dependent serotonin transporter (P31652 whole entry): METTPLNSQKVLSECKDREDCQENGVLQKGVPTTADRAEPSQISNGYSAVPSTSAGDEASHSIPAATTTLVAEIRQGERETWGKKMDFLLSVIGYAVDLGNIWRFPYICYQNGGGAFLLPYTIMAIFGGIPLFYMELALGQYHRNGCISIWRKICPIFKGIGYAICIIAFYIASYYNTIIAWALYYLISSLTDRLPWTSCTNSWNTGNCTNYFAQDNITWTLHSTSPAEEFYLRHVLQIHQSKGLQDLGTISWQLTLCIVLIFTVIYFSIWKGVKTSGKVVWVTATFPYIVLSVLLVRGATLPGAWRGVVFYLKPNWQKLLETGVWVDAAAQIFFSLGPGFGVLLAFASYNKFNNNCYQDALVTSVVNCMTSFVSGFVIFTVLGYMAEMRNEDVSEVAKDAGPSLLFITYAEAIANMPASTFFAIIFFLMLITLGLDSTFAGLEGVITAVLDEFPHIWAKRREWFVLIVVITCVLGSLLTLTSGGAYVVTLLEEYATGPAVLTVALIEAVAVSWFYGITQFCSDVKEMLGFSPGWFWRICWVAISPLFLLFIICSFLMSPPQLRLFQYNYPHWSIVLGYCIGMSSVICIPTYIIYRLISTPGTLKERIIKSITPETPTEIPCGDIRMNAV

With `COC(=O)C1C(c2ccc(-c3cccnc3)cc2)CC2CCC1N2C` (stereo not given) the Ki [1] was 0.0261 µM, the Ratio Ki [2] was 7 and the Ki [3] was 1.41 µM.

Compound `COC(=O)C1C(c2ccc(-c3nccs3)cc2)CC2CCC1N2C` (stereo not given) has a Ki [1] of 0.52 µM, a Ratio Ki [2] of 311 and a Ki [3] greater than 10 µM. It also gave a Ki [4] of 0.00167 µM.

Compound `COC(=O)C1C2CCC(CC1c1ccc(-c3cncc(OC)c3)cc1)N2` (stereo not given) has a Ki [1] of 0.332 µM, a Ratio Ki [2] of 212 and a Ki [3] of 0.739 µM. The Ki [4] was 0.00156 µM.

Work on `COC(=O)C1C(c2ccc(-c3cncnc3)cc2)CC2CCC1N2C` (stereo not given) yielded a Ratio Ki [2] of 110 and a Ki [3] greater than 10 µM.

In the case of `COC(=O)C1C(c2ccc(-c3ccco3)cc2)CC2CCC1N2C` (stereo not given), the Ratio Ki [2] is reported as 6 and the Ki [3] is reported as 1.4 µM.

With `COC(=O)C1C(c2ccc(-c3cc(F)cc(F)c3)cc2)CC2CCC1N2C` (stereo not given) the Ki [1] was 0.0317 µM, the Ratio Ki [2] was 77 and the Ki [3] was 0.109 µM. The Ratio Ki [5] was 265 and the Ki [4] was 0.00041 µM.

With `COC(=O)C1C2CCC(CC1c1ccc(-c3nccs3)cc1)N2` (stereo not given) the Ki [1] was 0.0696 µM, the Ratio Ki [2] was 13 and the Ki [3] was 0.213 µM. For the same compound, the Ki [4] was 0.00515 µM.

`COC(=O)C1C(c2ccc(-c3cccc(N(C)C)c3)cc2)CC2CCC1N2C` (stereo not given) showed a Ki [1] of 0.545 µM, a Ki [3] greater than 30 µM and a Ki [4] greater than 1 µM.

For `COC(=O)C1C(c2ccc(-c3ccncc3)cc2)CC2CCC1N2C` (stereo not given), the Ki [1] was 1.57 µM, the Ki [3] was greater than 30 µM and the Ki [4] was greater than 1 µM.

Compound `COC(=O)C1C(c2ccc(-c3cccc(F)c3)cc2)CC2CCC1N2C` (stereo not given) has a Ki [1] of 0.0252 µM, a Ratio Ki [2] of 50 and a Ki [3] of 0.249 µM. For the same compound, the Ratio Ki [5] was 498 and the Ki [4] was 0.0005 µM.

For `COC(=O)C1C(c2ccc(-c3cncc(OC)c3)cc2)CC2CCC1N2C` (stereo not given), the Ki [1] was 0.587 µM, the Ratio Ki [2] was 150 and the Ki [3] was 1.59 µM. For the same compound, the Ki [4] was 0.00391 µM.

Work on `COC(=O)C1C(c2ccc(-c3cnc4ccccc4c3)cc2)CC2CCC1N2C` (stereo not given) yielded a Ratio Ki [2] of 3 and a Ki [3] greater than 30 µM.

For `COC(=O)C1C(c2ccc(-c3ccoc3)cc2)CC2CCC1N2C` (stereo not given), the Ki [1] was 0.0142 µM, the Ratio Ki [2] was 40 and the Ki [3] was 0.127 µM. It also gave a Ki [4] of 0.00035 µM.

`COC(=O)C1C2CCC(CC1c1ccc(-c3ccco3)cc1)N2` (stereo not given) showed a Ki [1] of 0.00376 µM, a Ratio Ki [2] of 25 and a Ki [3] of 0.0127 µM. For the same compound, the Ki [4] was 0.00015 µM.

With `COC(=O)C1C(c2ccc(-c3cnccn3)cc2)CC2CCC1N2C` (stereo not given) the Ki [1] was 0.121 µM, the Ratio Ki [2] was 10 and the Ki [3] was 0.213 µM. For the same compound, the Ki [4] was 0.0113 µM.

With `COC(=O)C1C(c2ccc(-c3ccccn3)cc2)CC2CCC1N2C` (stereo not given) the Ratio Ki [2] was 0.27 and the Ki [3] was greater than 10 µM.

Reference: ChEMBL document CHEMBL1148559, “Synthesis and monoamine transporter affinity of new 2beta-carbomethoxy-3beta-[aryl or heteroaryl]phenyltropanes” (Bioorg Med Chem Lett, 2006)
